The source of these data is ChEMBL document CHEMBL3739424, “Synthesis and biological evaluation of 2,3-diarylthiophene analogues of combretastatin A-4” (Medchemcomm, 2015).

Activity calls are given as the source filed them. No cut-off for these calls is given here. Bounds are passed on as bounds.

The nature of experiment [1]: Anti-proliferative activity against human SGC7901 cells after 72 hrs by MTT assay. Conditions: SGC-7901, 72 h. Type of experiment: functional, cell-based. On the technique in general: Tetrazolium dyes change colour on reduction, which living cells bring about.
Experiment [2] can be described thus: Anti-proliferative activity against human HT1080 cells after 72 hrs by MTT assay. Format: functional, cell-based. Conditions: HT-1080, 72 h.
Another experiment concerns KB. The experiment can be described thus: Anti-proliferative activity against human KB cells after 72 hrs by MTT assay. Format: functional, cell-based.
The next experiment deals with SGC-7901. The experiment can be described thus: Induction of microtubule network disruption in human SGC7901 cells at 0.4 uM after 24 hrs using DAPI immunofluorescence staining. Type of experiment: cell-based.
Experiment [3] has as its target T1, Tubulin (Homo sapiens) (UniProt P68371+Q9H4B7+P0DPH7+P68366+Q13509+Q71U36+P04350+Q3ZCM7+P07437+P68363+Q9BQE3+Q6PEY2+Q13885+Q9BVA1+Q9BUF5). Nature of the experiment: (§1) Inhibition of tubulin (unknown origin) polymerization pre-incubated for 1 min measured for 1 min interval for 90 mins by fluorescence based assay. Type of experiment: protein-complex assay.
Another experiment concerns the target Tubulin. Described as §1. Type of experiment: protein-complex assay, Homo sapiens.
Experiment [4] concerns the target T1, Tubulin (Homo sapiens). The experiment can be described thus: Inhibition of tubulin (unknown origin) polymerization at 10 uM pre-incubated for 1 min measured for 1 min interval for 90 mins by fluorescence based assay. Type of experiment: protein-complex assay.
For experiment [5], the target named is T1, Tubulin (Homo sapiens). Nature of the experiment: Inhibition of tubulin (unknown origin) polymerization at 2 uM pre-incubated for 1 min measured for 1 min interval for 90 mins by fluorescence based assay. Format: protein-complex assay.
For experiment [6], the target named is T1, Tubulin (Homo sapiens). Nature of the experiment: Inhibition of tubulin (unknown origin) polymerization at 1 uM pre-incubated for 1 min measured for 1 min interval for 90 mins by fluorescence based assay. Format: protein-complex assay.
For experiment [7], the target named is T1, Tubulin (Homo sapiens). The experiment can be described thus: Inhibition of tubulin (unknown origin) polymerization at 4 uM pre-incubated for 1 min measured for 1 min interval for 90 mins by fluorescence based assay. Type of experiment: protein-complex assay.
The target in experiment [8] is T1, Tubulin (Homo sapiens). Nature of the experiment: Inhibition of tubulin (unknown origin) polymerization at 2.5 uM pre-incubated for 1 min measured for 1 min interval for 90 mins by fluorescence based assay. Format: protein-complex assay.
For experiment [9], the target named is T1, Tubulin (Homo sapiens). Nature of the experiment: Inhibition of tubulin (unknown origin) polymerization at 15 uM pre-incubated for 1 min measured for 1 min interval for 90 mins by fluorescence based assay. Type of experiment: protein-complex assay.
Experiment [10] has as its target T1, Tubulin (Homo sapiens). Nature of the experiment: Inhibition of tubulin (unknown origin) polymerization at 5 uM pre-incubated for 1 min measured for 1 min interval for 90 mins by fluorescence based assay. Type of experiment: protein-complex assay.

As usually defined, the IC50 is the concentration that gives 50% inhibition. High values mean lower potency, low ones higher potency. Consider `COc1ccc(-c2cc(C(=O)O)sc2-c2cc(OC)c(OC)c(OC)c2)cc1OCc1ccccc1`, for which the IC50 (in [1]; in experiment [2]; with KB) was more than 100 µM throughout.
On to `COc1ccc(-c2ccsc2-c2cc(OC)c(OC)c(OC)c2)cc1OCc1ccccc1`, for which the IC50 (in experiment [1]; in [2]; in the experiment on KB) was more than 100 µM each time.
As to `COc1ccc(-c2ccsc2-c2cc(OC)c(OC)c(OC)c2)cc1[N+](=O)[O-]`, the figures for the IC50 (in experiment [1]; in experiment [2]; in the experiment on KB) were 10.2 µM, 8.04 µM and 21 µM, respectively.
In the case of `COc1ccc(-c2ccsc2-c2cc(OC)c(OC)c(OC)c2)cc1`, the IC50 in experiment [1] was found to be 2.74 µM; in [2], 3.62 µM; in the experiment with KB, 7.4 µM.
In the case of `COc1cc(-c2cc(C(=O)O)sc2-c2ccc3ccccc3c2)cc(OC)c1OC`, the half-inhibitory concentration (IC50) in experiment [1] stood at 0.38 µM; in experiment [2], 13.4 µM; in the experiment on KB, 5.64 µM.
In the case of `COc1ccc(-c2sccc2-c2cc(OC)c(OC)c(OC)c2)cc1[N+](=O)[O-]`, the IC50 in experiment [1] came to 3.31 µM; in experiment [2] it was 2.1 µM; with KB it was 10.6 µM.
Consider `COc1ccc(-c2sc(C(=O)O)cc2-c2cc(OC)c(OC)c(OC)c2)cc1OCc1ccccc1`, for which the IC50 (in [1]; in experiment [2]; in the experiment with KB) was more than 100 µM in each case.
With `COc1cc(-c2ccsc2-c2cccc(Br)c2)cc(OC)c1OC`, the figures for the IC50 (in experiment [1]; in experiment [2]; with KB) were 46.1 µM, more than 100 µM and more than 100 µM, respectively.
As for `CCOC(=O)c1cc(-c2ccc(OC)cc2)c(-c2cc(OC)c(OC)c(OC)c2)s1`, the IC50 amounted to 6.82 µM in [1], 7.63 µM in experiment [2] and 10.2 µM in the experiment with KB.
Regarding `CCOC(=O)c1cc(-c2cc(OC)c(OC)c(OC)c2)c(-c2ccc(OC)cc2)s1`, the values for the IC50 (in [1]; in [2]; in the experiment on KB) were 9.76 µM, 8.37 µM and 13.2 µM, respectively.
With `COc1ccc(-c2sc(C(=O)O)cc2-c2cc(OC)c(OC)c(OC)c2)cc1[N+](=O)[O-]`, the IC50 in experiment [1] was found to be 23.3 µM; in experiment [2] it was 37.2 µM; in the experiment on KB, 35.9 µM.
Turning to `COc1ccc(-c2sccc2-c2cc(OC)c(OC)c(OC)c2)cc1`, the IC50 in experiment [1] was 5.47 µM; in experiment [2] it was 4.59 µM; with KB it was 8.88 µM.
For the compound `COc1ccc(/C=C\c2cc(OC)c(OC)c(OC)c2)cc1O` [COMBRETASTATIN A4], the outcome in the experiment with SGC-7901 was Active. Moreover, the IC50 in experiment [1] came to 0.024 µM; in experiment [2], 0.011 µM; with KB it was 0.016 µM.
On to `CCOC(=O)c1cc(-c2ccc(OC)c([N+](=O)[O-])c2)c(-c2cc(OC)c(OC)c(OC)c2)s1`, for which the results for the IC50 (in [1]; in [2]; in the experiment on KB) were 19.4 µM, 26.1 µM and 24 µM, respectively.
Take `CCOC(=O)c1cc(-c2cc(OC)c(OC)c(OC)c2)c(-c2ccc(OC)c(O)c2)s1`: the results for the IC50 (in experiment [1]; in experiment [2]; in the experiment with KB) were 1.58 µM, 3.22 µM and 1.25 µM, respectively.
The like results for `CCOC(=O)c1cc(-c2cc(OC)c(OC)c(OC)c2)c(-c2ccc(OC)c(OCc3ccccc3)c2)s1` were, in that order, more than 100 µM, more than 100 µM and more than 100 µM.
Take `COc1ccc(-c2cc(C(=O)O)sc2-c2cc(OC)c(OC)c(OC)c2)cc1O`: the IC50 in experiment [1] was determined as 17.5 µM; in experiment [2], 11.4 µM; in the experiment on KB, 21.8 µM.
In the case of `CCOC(=O)c1cc(-c2cc(OC)c(OC)c(OC)c2)c(-c2ccc3ccccc3c2)s1`, the IC50 in experiment [1] is 4.34 µM; in [2] it was 1.15 µM; with KB, 5.89 µM.
Take `CCOC(=O)c1cc(-c2cc(OC)c(OC)c(OC)c2)c(-c2cccc(Br)c2)s1`: the IC50 (in experiment [1]; in experiment [2]; in the experiment with KB) was more than 100 µM each time.
Regarding `CCOC(=O)c1cc(-c2ccc(OC)c(O)c2)c(-c2cc(OC)c(OC)c(OC)c2)s1`, the IC50 in [1] was 20 µM; in [2] it was 82.5 µM; in the experiment on KB, more than 100 µM.
What is called inhibition is how much of the control response was suppressed. In the case of `COc1ccc(-c2ccsc2-c2cc(OC)c(OC)c(OC)c2)cc1O`, the inhibition result at Tubulin (Homo sapiens) [3] is “Dose-dependent effect”; against Tubulin (Homo sapiens) [4], 87.5%; against Tubulin (Homo sapiens) [5] it was 23.3%; at Tubulin (Homo sapiens) [6] it was 10%; against Tubulin (Homo sapiens) [7], 39.3%. Besides, the IC50 on Tubulin stood at 5.01 µM; in experiment [1], 0.52 µM; in experiment [2], 2.12 µM; with KB, 1.53 µM. Besides, the result in the experiment on SGC-7901 was Active.
Turning to `COc1ccc(-c2sccc2-c2cc(OC)c(OC)c(OC)c2)cc1OCc1ccccc1`, the IC50 (in experiment [1]; in experiment [2]; with KB) was more than 100 µM each time.
As for `COc1ccc(-c2cc(C(=O)O)sc2-c2cc(OC)c(OC)c(OC)c2)cc1`, the IC50 came to 4.22 µM in [1], 5.81 µM in [2] and 8.65 µM in the experiment with KB.
With `COc1ccc(-c2cc(C(=O)O)sc2-c2cc(OC)c(OC)c(OC)c2)cc1[N+](=O)[O-]`, the IC50 in experiment [1] came to 21.6 µM; in experiment [2], 38.1 µM; in the experiment with KB, 43.7 µM.
As to `CCOC(=O)c1cc(-c2cc(OC)c(OC)c(OC)c2)c(-c2ccc(OC)c([N+](=O)[O-])c2)s1`, the IC50 in experiment [1] worked out at 18.1 µM; in [2] it was 12.7 µM; with KB, 15.8 µM.
The like results for `COc1ccc(-c2sc(C(=O)O)cc2-c2cc(OC)c(OC)c(OC)c2)cc1O` were, in that order, 6.1 µM, 7.51 µM and 11.2 µM.
Consider `COc1ccc(-c2sc(C(=O)O)cc2-c2cc(OC)c(OC)c(OC)c2)cc1`, for which the IC50 came to 7.8 µM in experiment [1], 6.77 µM in [2] and 10.4 µM in the experiment with KB.
Turning to `CCOC(=O)c1cc(-c2ccc(OC)c(OCc3ccccc3)c2)c(-c2cc(OC)c(OC)c(OC)c2)s1`, the IC50 (in experiment [1]; in [2]; in the experiment with KB) was more than 100 µM in each case.
With `COc1cc(-c2ccsc2-c2ccc3ccccc3c2)cc(OC)c1OC`, the values for the IC50 (in experiment [1]; in experiment [2]; with KB) were 5.89 µM, 5.43 µM and 3.66 µM, respectively.
As for `COc1cc(-c2cc(C(=O)O)sc2-c2cccc(Br)c2)cc(OC)c1OC`, the IC50 in experiment [1] is 93.4 µM; in [2], more than 100 µM; with KB it was 32.3 µM.
In the case of `COc1ccc(-c2sccc2-c2cc(OC)c(OC)c(OC)c2)cc1O`, the inhibition result on Tubulin (Homo sapiens) [3] is “Dose-dependent effect”; on Tubulin (Homo sapiens) [8], 7.4%; against Tubulin (Homo sapiens) [4], 48%; at Tubulin (Homo sapiens) [9], 72.3%; against Tubulin (Homo sapiens) [10] it was 20%. Besides, the half-inhibitory concentration (IC50) against Tubulin was 9.76 µM; in [1], 0.58 µM; in [2] it was 1.94 µM; in the experiment on KB, 6.27 µM.
